Values joined by “and” are separate entries in the source; they are usually repeats but may differ in a detail not shown here. Identical values can stand only once. Like-named read-outs stand apart in the source and are kept apart here.
Tests used:
[1] = system: GX_P2V; experiment: microbe, parasite or virus in culture; format: cell-based, Guangxi pangolin-CoV (GX_P2V); conditions: for inhibition at 0.193125 µM / inhibition at 0.39 µM / inhibition at 0.49485 µM / inhibition at 0.79588 µM / inhibition at 1.09691 µM / inhibition at 0.78 µM / inhibition at 1.39794 µM / inhibition at 1.69897 µM: Vero C1008, 48 h, read-out: Percentage of Inhibition (%)
[2] = system: SARS-CoV-2 pseudotyped virus; experiment: microbe, parasite or virus in culture; format: cell-based
[3] = system: SARS-CoV-2 live virus (SARS-CoV-2/WH-09/human/2020/CHN); experiment: microbe, parasite or virus in culture; format: cell-based
[4] = system: PEDV strain CV777; experiment: microbe, parasite or virus in culture; format: cell-based, porcine epidemic diarrhea virus (PEDV)
[5] = system: SADS-CoV strain CN/GDWT/2017; experiment: cells; format: cell-based, swine acute diarrhoea syndrome coronavirus (SADS-CoV)
[6] = system: SARS-CoV pseudotyped virus; experiment: microbe, parasite or virus in culture; format: cell-based; conditions: for EC50: read-out: EC50 against SARS-CoV pseudotyped virus
[7] = system: MERS-CoV pseudotyped virus; experiment: microbe, parasite or virus in culture; format: cell-based
[8] = system: GX_P2V; experiment: organism not typed; format: cell-based, Guangxi pangolin-CoV (GX_P2V)
[9] = system: SARS-CoV-2 trVLP; format: cell-based
[10] = system: SARS-CoV-2 trVLP
[11] = in vitro; conditions: African green monkey
[12] = in vitro; conditions: human, Caco-2
[13] = in vitro; conditions: human
[14] = system: SARS-CoV-2 trVLP; experiment: microbe, parasite or virus in culture
[15] = system: Huh 7 cells
[16] = Severe acute respiratory syndrome coronavirus 2, Vero C1008, read-out: EC50 against diverse SARS-CoV-2-related viruses (summary statement)
[17] = Vero C1008, read-out: EC50 against GX_P2V
[18] = Severe acute respiratory syndrome coronavirus 2, 24 h, read-out: EC50 against SARS-CoV-2 pseudotyped virus
[19] = Severe acute respiratory syndrome coronavirus 2, Vero C1008, read-out: SARS-CoV-2 (Vero E6) EC50
[20] = Porcine epidemic diarrhea virus, Huh-7, read-out: EC50 against PEDV
[21] = Huh-7, read-out: EC50 against SADS-CoV
[22] = Severe acute respiratory syndrome coronavirus
[23] = Middle East respiratory syndrome-related coronavirus, Huh-7, read-out: EC50 against MERS-CoV pseudotyped virus
[24] = CC50, cytotoxicity to Huh 7 cells (Fig. 4B, SADS-CoV panel)
[25] = Severe acute respiratory syndrome coronavirus 2, read-out: EC50 SARS-CoV-2 trVLP
[26] = Severe acute respiratory syndrome coronavirus 2, read-out: EC50 SARS-CoV-2pseudotypedvirus
[27] = Vero C1008, read-out: EC50 GX_P2V

| Molecule | inhibition at 0.49485 µM [1] [%] | inhibition at 0.79588 µM [1] [%] | inhibition at 1.09691 µM [1] [%] | EC50 [3, 19] [µM] | EC50 [4, 20] [µM] | EC50 [5, 21] [µM] | EC50 [6, 22] [µM] | EC50 [7, 23] [µM] | Time of addition of anti-GX_P2V activity, Entry [8] | Time of addition of anti-GX_P2V activity, Full-time [8] | Time of addition of anti-GX_P2V activity, Post-entry [8] | Time of addition of anti-SARS-CoV-2 trVLPs activity, Entry [9] | Time of addition of anti-SARS-CoV-2 trVLPs activity, Full-time [9] | Time of addition of anti-SARS-CoV-2 trVLPs activity, Post-entry [9] | SI (SARS-CoV-2 trVLP, Caco 2-N) [10] | CC50 at 48 h [11] [µM] | CC50 at 48 h [12] [µM] | CC50 [13] [µM] | CC50 [13, 24] [µM] | EC50 [14, 25] [µM] | other results |
| --- | --- | --- | --- | --- | --- | --- | --- | --- | --- | --- | --- | --- | --- | --- | --- | --- | --- | --- | --- | --- | --- |
| COc1ccc2cc1Oc1ccc(cc1)C[C@H]1c3c(cc4c(c3Oc3cc5c(cc3OC)CCN(C)[C@@H]5C2)OCO4)CCN1C [Cepharanthine, reference compound] | 77.8 | 96.7 | 100 | 2.19 | 0.2 | 1.03 | 1.37 | 2.19 | 88.370 and 86.873 and 86.696 | 99.145 and 99.093 and 99.139 | 88.656 and 88.646 and 88.662 | 63.189 and 64.430 and 67.089 | 95.064 and 95.621 and 95.146 | 74.095 and 72.335 and 71.421 | > 31.25 | > 12.5 | > 50 | 11 | > 12.5 | 1.6 | EC50 [1, 16]: < 2 µM; inhibition at 0.193125 µM [1]: 46.4%; inhibition at 0.39 µM [1]: 20.4%; EC50 [1, 17]: 1.78 µM; EC50 [2, 18]: 0.74 µM; Percentage of Inhibition (%) [4]: 99.988%; EC50 ([5]; Huh-7, read-out: EC50 SADS): 0.4 µM; Percentage of Inhibition (%) [6]: 99.382% and 89.647%; Percentage of Inhibition (%) [7]: 24.735% |
| COc1cc2c(cc1O)[C@@H](Cc1ccc(O)c(Oc3ccc(C[C@@H]4c5cc(OC)c(OC)cc5CCN4C)cc3)c1)N(C)CC2 [Daurisoline, daurisoline] |  |  |  | 12.5 | 0.82 | 2.8 | 2.76 | 2.46 | 73.500 and 68.250 and 70.810 | 99.980 | 90.220 and 88.260 and 87.780 | 21.082 and 20.351 and 25.494 | 69.364 and 69.350 and 65.328 | 59.015 and 61.872 and 61.323 | > 35.21 | > 50 | > 50 | > 12.5 |  |  | inhibition at 0.193125 µM [1]: 6.47%; inhibition at 0.78 µM [1]: 63%; inhibition at 1.39794 µM [1]: 100%; inhibition at 1.69897 µM [1]: 100%; EC50 [1, 17]: ~14.1 µM; EC50 ([1]; Vero C1008, read-out: EC50 against GX_P2V, repeated experiment): 10.6 µM; EC50 [2, 26]: 8.48 µM; inhibition at 6.25 µM ([8]; Vero C1008, read-out: Inhibition against GX_P2V, full-time treatment): ~100%; EC50 ([14]; Severe acute respiratory syndrome coronavirus 2, read-out: EC50 against SARS-CoV-2 trVLP): 1.42 µM |
| COc1ccc2cc1Oc1ccc(cc1)C[C@H]1c3cc(c(OC)cc3CCN1C)Oc1c(O)c(OC)cc3c1[C@H](C2)N(C)CC3 [Fangchinoline, fangchinoline] | 97.5 | 95.4 | 100 | 5.01 | 0.2 | 2.23 | 1.73 | 4.47 | 98.527 and 98.293 and 98.495 | 99.636 and 99.587 and 99.561 | 96.715 and 95.065 and 93.301 | 64.788 and 62.324 and 70.383 | 98.422 and 98.513 and 99.025 | 80.036 and 76.348 and 75.577 | 24.05 | > 12.5 | 46.4 | 12.3 | > 12.5 | 1.93 | EC50 [1, 16]: < 2 µM; inhibition at 0.39 µM [1]: 21%; inhibition at 0.78 µM [1]: 14%; EC50 [1, 27]: 1.97 µM; Percentage of Inhibition (%), SARS-CoV-2 pseudotyped virus [2]: 100%; EC50 [2, 18]: 1.16 µM; Percentage of Inhibition (%) [10]: 100% |
| COc1ccc2cc1Oc1ccc(cc1)C[C@H]1c3cc(c(OC)cc3CCN1C)Oc1c(OC)c(OC)cc3c1[C@H](C2)N(C)CC3 [Tetrandrine, reference compound] | 11.3 | 70.2 | 100 | 3.13 | 0.44 | 2.19 | 3.04 | 2.17 | 99.931 and 99.920 | 99.968 and 99.974 and 99.976 | 99.868 and 99.847 and 99.852 | 36.455 and 44.889 and 48.206 | 99.957 and 99.767 and 99.878 | 89.364 and 97.266 and 89.859 | > 17.86 | 21.9 | > 50 | 11.7 | > 12.5 | 2.8 | inhibition at 1.39794 µM [1]: 100%; inhibition at 1.69897 µM [1]: 100%; EC50 [1, 27]: 5.21 µM; EC50 [2, 26]: 3.2 µM; Percentage of Inhibition (%) [6]: 99.687%; Percentage of Inhibition (%) [7]: 99.674% and 99.511%; CC50 [11]: 21.9 µM |
| cycleanine |  |  |  |  |  |  |  |  | 60.950 and 60.215 and 58.803 | 92.758 and 93.389 and 93.191 | 62.451 and 61.926 and 63.133 | 37.174 and 37.913 and 46.924 | 60.248 and 61.546 and 62.312 | 56.735 and 54.305 and 57.336 | > 32.68 |  |  |  |  |  | Percentage of Inhibition (%) [1]: 100%; EC50 ([1]; read-out: EC50 against GX_P2V): 1.49 µM; EC50 ([2]; read-out: EC50 SARS-CoV-2pseudotypedvirus): 6.54 µM; EC50 ([3]; read-out: SARS-CoV-2 (Vero E6) EC50): 8.91 µM; EC50 ([4]; read-out: EC50 against PEDV): 0.34 µM; EC50 ([5]; read-out: EC50 against SADS-CoV): 2.77 µM; EC50 [6]: 3.2 µM; EC50 ([7]; read-out: EC50 against MERS-CoV pseudotyped virus): 2.45 µM; EC50 ([10]; read-out: EC50 SARS-CoV-2 trVLP): 1.53 µM; CC50 [15]: > 12.5 µM |
